Assay [1] has as its target T1, GPR84 (Homo sapiens, UniProt Q9NQS5). Put plainly: Human neutrophil migration inhibition assay, Embelin as chemotactic agent. Type of assay: cell-based. The conditions noted are these: for induction of neutrophil chemotaxis: GPR84 agonist used as chemotactic agent; for inhibition at 0.1 µM / inhibition at 1 µM / inhibition at 10 µM: 5 μM Embelin; for inhibition at 0.1 µM: compound 0.1 μM, read-out: Percentage of chemotaxis inhibition (PIN) @ 0.1 μM; for inhibition at 1 µM: compound 1 μM, read-out: Percentage of chemotaxis inhibition (PIN) @ 1 μM; for inhibition at 10 µM: compound 10 μM, read-out: Percentage of chemotaxis inhibition (PIN) @ 10 μM; for IC50: human neutrophils, Embelin as chemotactic agent, read-out: Embelin-induced neutrophil chemotaxis IC50.

The target in assay [2] is T1, GPR84. Set-up: expressed in transfected cells. Conditions: Wang 2006; WO 2007/027661; cited from earlier work.
The test system of assay [3] is IL8-stimulated chemotaxis of neutrophils. Put plainly: Human neutrophil migration assay, IL8 as chemotactic agent. Conditions: for inhibition at 0.1 µM: read-out: Percentage of chemotaxis inhibition (PIN) @ 0.1 μM; for inhibition at 1 µM: read-out: Percentage of chemotaxis inhibition (PIN) @ 1 μM; for inhibition at 10 µM: read-out: Percentage of chemotaxis inhibition (PIN) @ 10 μM.
Method: In the neutrophil migration assay, neutrophils, freshly isolated from buffy coats from human volunteers, are treated with a compound for 30 minutes. Subsequently, the neutrophils are transferred to the upper wells of a Corning HTS transwell 96 permeable support system, of which the lower wells are filled with a Embelin solution.
A human buffy coat is diluted with an equal volume of ice cold DPBS. 20 mL of the diluted buffy coat was gently mixed with 4 mL of ACD buffer (140 mM citric acid, 200 mM sodium citrate and 220 mM dextrose). Then, 12 mL of the 6% dextran/0.9% NaCl solution (15 g dextran T2000 and 2.25 g NaCl dissolved in 250 mL H2O) is added to the mixture and the samples are inverted gently up to 20 times. The total volume is transferred to a new recipient and incubated at room temperature for 1 h for complete separation of the two phases to occur. The yellowish supernatant is then transferred to a clean centrifugation tube and centrifuged for 12 minutes at 1300 rpm and 4° C. After centrifugation, the supernatant is discarded and the remaining cell pellet is rapidly resuspended in 12 mL of ice-cold H2O for red blood cell lysis to occur. After 20 seconds, 4 mL of ice-cold 0.6 M KCl is added.
A cell suspension of 8.9×10^6 cells per milliliter is prepared. 20 μL of compound solution in chemotaxis buffer is added to 180 μL cell suspension. The mixture is incubated at 37° C. for 30 minutes with intermediate resuspension of the cells after 15 minutes. […] The receiver well of the transwell system is then filled with 200 μL chemotaxis buffer containing compound and chemotactic agent (Embelin). After incubation at 37° C. in 5% CO2 for 1 h, the upper plate of the transwell system was removed and the cell suspension in the receiver plate is transferred to a 96-well V-bottom plate. 50 μL of DPBS is added to the receiver plate to prevent remaining cells from drying out. The V-bottom plate is centrifuged for 6 minutes at 1500 rpm. The supernatant is removed and the cells are resuspended in 50 μL DPBS. The cells are then transferred back to the receiver plate of the transwell system. […] The plate is incubated for 10 minutes in the dark, while shaking. 170 μL of cell lysate is then transferred to a white 96-well plate and luminescence is measured. The detected luminescent signal is considered as linearly related to the number of cells having migrated from the upper well to the receiver well.
The same assay as described above is also performed using IL8 (25 ng/mL) as a chemotactic agent instead of Embelin.

Assay [4] deals with T1, GPR84. Briefly: Functional GPR84 activation assay: GTP-γS binding assay. Type of assay: biochemical. Set-up: expressed in transfected cells. Conditions: membranes over expressing GPR84; 3,3′ di indolylmethane at EC80; read-out: GTPgS binding EC50. How it is done: The following assay can be used for determination of GPR84 activation.
The assay is performed in a 96 well plate where the following reagents were added. […] In a last step, 30 μL of a mixture consisting of membranes-GTPγS-SpA beads is added [mixture consists of 20 μg/well membranes derived from stable cell line over expressing GPR84 (membranes are pre-incubated with 0.1 μM GDP for 15 min at 4° C.), 0.1 nM [^35S]GTPγS (Perkin Elmer, NEG030) and 0.5 mg/well PVT-WGA SpA beads (Perkin Elmer, RPNQ0001)]. All components are diluted in assay buffer containing 20 mM Hepes pH 7.4; 5 mM MgCl2; 250 mM NaCl; 0.05% BSA; 75 ug/mL saponin. Reactions are incubated for 90 min at room temperature followed by centrifugation at 2000 rpm for 15 min. Plates are read on a Topcount reader (Perkin Elmer) immediately after centrifugation (readout time, 1 min/well).

The test system of assay [5] is RAW264.7 murine macrophage-like cells. Conditions: RAW264.7 cells stimulated with LPS; cited from earlier work.
The test system of assay [6] is chronic DSS-induced colitis. Briefly: Mouse chronic DSS-induced inflammatory bowel disease model. Type of assay: in vivo. The conditions noted are these: female BALB/c mice, p.o., data not shown. The text has this:
The compounds identified using the assay method described in Example 2, or others herein, can be further validated in vivo using known disease models. The mouse chronic DSS-induced inflammatory bowel disease model (IBD) is a well validated disease model for inflammatory bowel disease (Wirtz S. et al., 2007 Nature Protocols 2, 541-546; Sina C. et al., 2009 J. Immunol 183 7514-7522).
To induce a chronic colitis, female BALB/c mice are fed with 4% dextran sodium sulfate (DSS) dissolved in drinking water for 4 days, followed by 3 days of regular drinking water. This cycle is repeated three times. This protocol allows inducing a strong colitis while avoiding high mortality rates. Animals are divided into several groups: • intact (water; vehicle alone, n=10), • diseased (DSS; vehicle alone, n=10), • sulfazalazine used as reference (DSS; sulfazalazine, p.o., n=10) and • the tested compound (DSS; test cpd, p.o., n=10).
Clinical parameters are measured every other day. The disease activity index (DAI) is a composite measure combining of the individual scores for weight loss, stool consistency and rectal bleeding. Mice are sacrificed at day 20 of the experiment according to the protocol introduced by Sina et al. (2009). At sacrifice time, the complete colon is removed and rinsed with sterile PBS. […]

The inhibition is the change of the read-out against control, counted positive when it falls. Broadly, the IC50 is the point on the concentration scale where inhibition reaches its midpoint. As a reminder, the EC50 is the concentration that produces a half-maximal response.

Molecules are shown by their SMILES.

T1 sequence (Q9NQS5 whole entry): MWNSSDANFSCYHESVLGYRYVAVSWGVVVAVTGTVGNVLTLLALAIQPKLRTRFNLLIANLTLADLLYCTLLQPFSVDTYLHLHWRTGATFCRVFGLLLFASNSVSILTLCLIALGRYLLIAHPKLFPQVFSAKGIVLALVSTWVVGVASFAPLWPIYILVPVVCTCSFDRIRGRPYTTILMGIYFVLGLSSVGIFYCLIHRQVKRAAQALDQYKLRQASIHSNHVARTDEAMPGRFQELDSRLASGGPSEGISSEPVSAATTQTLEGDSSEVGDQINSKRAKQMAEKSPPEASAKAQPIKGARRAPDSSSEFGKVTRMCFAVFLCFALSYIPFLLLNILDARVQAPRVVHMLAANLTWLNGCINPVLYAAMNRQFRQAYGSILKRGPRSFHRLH

For `CCCCCCCCCCCC1=C(O)C(=O)C=C(O)C1=O` [Embelin, 2,5-dihydroxy-3-undecyl-2,5-cyclohexadiene-1,4-dione, reference compound], the “induction of neutrophil chemotaxis” value on GPR84 [1] is “induce neutrophil chemotaxis”. In addition, on GPR84 [2], the GPR84 agonist activity result was “some GPR84 agonist activity”.

Turning to `O=c1nc(OCC2COCCO2)cc2n1CCc1cc(C#CCNc3ccccc3)ccc1-2` (centres unmarked) [Cpd 3, 2-([1,4]Dioxan-2-ylmethoxy)-9-(3-phenylamino-prop-1-ynyl)-6,7-dihydro-pyrimido[6,1-a]isoquinolin-4-one], in assay [3], the inhibition at 0.1 µM was 2%, the inhibition at 1 µM worked out at 1% and the inhibition at 10 µM is -13%. In addition, at GPR84 [1], the inhibition at 0.1 µM was found to be 38%, the inhibition at 1 µM stood at 81%, the inhibition at 10 µM stood at 72% and the IC50 came out at 0.00634 µM. On GPR84 [4], the EC50 stood at 0.025 µM.

`O=c1nc(OC[C@@H]2COCCO2)cc2n1CCc1cc(CCCNc3ccccc3)ccc1-2` [Cpd 10, 2-((S)-1-[1,4]Dioxan-2-ylmethoxy)-9-(3-phenylamino-propyl)-6,7-dihydro-pyrimido[6,1-a]isoquinolin-4-one]: in assay [3], the inhibition at 0.1 µM was found to be 13%, the inhibition at 1 µM stood at 7% and the inhibition at 10 µM was 24%. Also, at GPR84 [1], the inhibition at 0.1 µM was found to be 71%, the inhibition at 1 µM worked out at 87%, the inhibition at 10 µM turned out to be 80% and the IC50 was determined as 0.0093 µM. For the same molecule, the EC50 on GPR84 [4] is 0.008 µM.

In the case of `O=c1nc(OCC2COCCO2)cc2n1CCc1cc(OCc3noc(C4CC4)n3)ccc1-2` (centres unmarked) [Cpd 1, 9-(5-Cyclopropyl-[1,2,4]oxadiazol-3-ylmethoxy)-2-([1,4]dioxan-2-ylmethoxy)-6,7-dihydro-pyrimido[6,1-a]isoquinolin-4-one], in assay [3], the inhibition at 0.1 µM turned out to be 1%, the inhibition at 1 µM was -11% and the inhibition at 10 µM was 17%. Further, on GPR84 [1], the inhibition at 0.1 µM is 69%, the inhibition at 1 µM stood at 86%, the inhibition at 10 µM was 89% and the IC50 amounted to 0.0104 µM. Further, the EC50 on GPR84 [4] came to 0.036 µM.

Take `CCCC(O)C#Cc1ccc2c(c1)CCn1c-2cc(OCC2COCCO2)nc1=O` (centres unmarked) [Cpd 2, 2-([1,4]Dioxan-2-ylmethoxy)-9-(3-hydroxy-hex-1-ynyl)-6,7-dihydro-pyrimido[6,1-a]isoquinolin-4-one]: in assay [3], the inhibition at 0.1 µM worked out at 13%, the inhibition at 1 µM is -6% and the inhibition at 10 µM was 20%. At GPR84 [1], the inhibition at 0.1 µM was 86%, the inhibition at 1 µM was found to be 94%, the inhibition at 10 µM is 90% and the IC50 amounted to 0.00274 µM. Also, the EC50 at GPR84 [4] was found to be 0.04 µM.

Turning to `CCCCCCCCCCC(=O)O` [undecanoic acid], the “secretion of interleukin-12 p40 subunit (IL-12 p40)” value (“secretion” below) in assay [5] is given as “dose-dependently increased”.

Consider `c1ccc2c(Cc3c[nH]c4ccccc34)c[nH]c2c1` [3,3′ di indolylmethane, reference compound], for which, on GPR84 [1], the “induction of neutrophil chemotaxis” value is given as “induce neutrophil chemotaxis”. Further, the GPR84 agonist activity result at GPR84 [2] is “some GPR84 agonist activity”.

Turning to `CC(O)CCCc1ccc2c(c1)CCn1c-2cc(OC[C@@H]2COCCO2)nc1=O` (stereo partly drawn) [Cpd 11, 2-((S)-1-[1,4]Dioxan-2-ylmethoxy)-9-(4-hydroxy-pentyl)-6,7-dihydro-pyrimido[6,1-a]isoquinolin-4-one], in assay [3], the inhibition at 0.1 µM turned out to be 7%, the inhibition at 1 µM worked out at 0% and the inhibition at 10 µM stood at 12%. On GPR84 [1], the inhibition at 0.1 µM worked out at 66%, the inhibition at 1 µM amounted to 90%, the inhibition at 10 µM was determined as 86% and the IC50 was determined as 0.0039 µM.

`CCCCCCCCCCCC(=O)O` [lauric acid]: in assay [5], the “secretion” value is on record as “dose-dependently increased”.

`CC(C)C#Cc1ccc2c(c1)CCn1c-2cc(OC[C@@H]2COCCO2)nc1=O` [Cpd 5, 2-((S)-1-[1,4]Dioxan-2-ylmethoxy)-9-(3-methyl-but-1-ynyl)-6,7-dihydro-pyrimido[6,1-a]isoquinolin-4-one]: in assay [3], the inhibition at 0.1 µM worked out at 30%, the inhibition at 1 µM turned out to be 29% and the inhibition at 10 µM amounted to 48%. Moreover, on GPR84 [1], the inhibition at 0.1 µM amounted to 73%, the inhibition at 1 µM came to 97%, the inhibition at 10 µM was found to be 96% and the half-maximal inhibitory concentration (IC50) came out at 0.0622 µM. Moreover, at GPR84 [4], the EC50 stood at 0.077 µM.

As to `O=c1nc(OC[C@@H]2COCCO2)cc2n1CCc1cc(OCC3CCCCO3)ccc1-2` (stereo partly drawn) [Cpd 9, 2-((S)-1-[1,4]Dioxan-2-ylmethoxy)-9-(tetrahydro-pyran-2-ylmethoxy)-6,7-dihydro-pyrimido[6,1-a]isoquinolin-4-one], in assay [3], the inhibition at 0.1 µM was determined as 25%, the inhibition at 1 µM came out at 28% and the inhibition at 10 µM was 24%. Moreover, at GPR84 [1], the inhibition at 0.1 µM came out at 64%, the inhibition at 1 µM was 94%, the inhibition at 10 µM was found to be 88% and the IC50 is 0.0408 µM. On GPR84 [4], the half-maximal effective concentration (EC50) was determined as 0.075 µM.

In the case of `O=c1nc(OC[C@H]2COCCO2)cc2n1CCc1cc(COC3CCCC3)ccc1-2` [Cpd 6, 9-Cyclopentyloxymethyl-2-((R)-1-[1,4]dioxan-2-ylmethoxy)-6,7-dihydro-pyrimido[6,1-a]isoquinolin-4-one], in assay [3], the inhibition at 0.1 µM was 20%, the inhibition at 1 µM is 15% and the inhibition at 10 µM came out at 35%.

With `O=C(O)c1cc(/N=N/c2ccc(S(=O)(=O)Nc3ccccn3)cc2)ccc1O` [sulfazalazine], the “effect against chronic inflammatory bowel disease” value in assay [6] is recorded as “protective effect”.

Take `CCCCCCCCCC(=O)O` [capric acid]: the “secretion” value in assay [5] was “dose-dependently increased”.

As for `CCCCCCCCCC(=O)[O-].[Na+]` [sodium decanoate, reference compound], the “induction of neutrophil chemotaxis” value at GPR84 [1] is “induce neutrophil chemotaxis”.

For the molecule `CCC(C)(C)CNc1ccc2c(c1)CCn1c-2cc(OC[C@@H]2COCCO2)nc1=O` [Cpd 8, 9-(2,2-Dimethyl-butylamino)-2-((S)-1-[1,4]dioxan-2-ylmethoxy)-6,7-dihydro-pyrimido[6,1-a]isoquinolin-4-one], in assay [3], the inhibition at 0.1 µM turned out to be 9%, the inhibition at 1 µM is 15% and the inhibition at 10 µM was 55%. Moreover, at GPR84 [1], the inhibition at 0.1 µM came out at 52%, the inhibition at 1 µM worked out at 95%, the inhibition at 10 µM turned out to be 103% and the IC50 is 0.0414 µM. Further, the concentration for a half-maximal effect (EC50) on GPR84 [4] was found to be 0.069 µM.

With `O=c1nc(OCC2COCCO2)cc2n1CCc1cc(CCC(O)c3cccnc3)ccc1-2` (centres unmarked) [Cpd 7, 2-([1,4]Dioxan-2-ylmethoxy)-9-(3-hydroxy-3-pyridin-3-yl-propyl)-6,7-dihydro-pyrimido[6,1-a]isoquinolin-4-one], in assay [3], the inhibition at 0.1 µM turned out to be 18%, the inhibition at 1 µM came to 22% and the inhibition at 10 µM is 13%. Besides, on GPR84 [1], the inhibition at 0.1 µM worked out at 54%, the inhibition at 1 µM worked out at 90%, the inhibition at 10 µM was 81% and the IC50 amounted to 0.0834 µM. For the same molecule, the 50% effective concentration (EC50) on GPR84 [4] was 0.041 µM.

`O=c1nc(OCC2COCCO2)cc2n1CCc1cc(COC3CCCC3)ccc1-2` (centres unmarked) [Cpd 4, 9-Cyclopentyloxymethyl-2-([1,4]dioxan-2-ylmethoxy)-6,7-dihydro-pyrimido[6,1-a]isoquinolin-4-one]: in assay [3], the inhibition at 0.1 µM was found to be 3%, the inhibition at 1 µM is 3% and the inhibition at 10 µM came to 19%.

The record behind these values is patent US9945843B2, “Methods for identifying compounds that inhibit G protein-coupled receptor (GPR84) agonist-stimulated chemotaxis” (GALAPAGOS NV, priority 2011, dated 2018).
